{"source": "patent US9980943B2", "about": "“Methods of treating muscular dystrophy” (BOARD OF REGENTS OF THE NEVADA SYSTEM OF HIGHER EDUCATION, …, priority 2013, dated 2018)", "assay_type_in_all_cases": "cell-based, mouse", "key": {"[1]": {"tested_on": "α7 integrin (LacZ reporter in α7βgal+/− myoblasts)", "test": "Myoblast α7+/LacZ integrin FDG assay (Burkin assay in myoblasts, 96-well)", "conditions": "96-well; for Burkin Assay in Myoblasts, signal relative to DMSO: α7+/LacZ myoblasts; for Burkin Assay in Myoblasts, value relative to DMSO: SU9516 analogs, N=3-6"}, "[2]": {"tested_on": "α7 integrin (LacZ reporter in α7+/LacZ myotubes)", "test": "Myotube α7 integrin FDG assay (Burkin assay in myotubes, 96-well)", "conditions": "for Burkin Assay in Myotubes, value relative to DMSO: SU9516 analogs, 96-well, N=3-6"}, "[3]": {"tested_on": "β-galactosidase in CMV-LacZ C2C12 myotubes", "test": "CMV-LacZ secondary screen in C2C12 myotubes (β-Gal stabilizing assay)", "conditions": "for CMV-LACZ in Myotubes, signal relative to DMSO: C2C12 CMV-LacZ myotubes, fold relative to DMSO; for CMV-LACZ in Myotubes, value relative to DMSO: SU9516 analogs, C2C12 CMV-LacZ, N=2", "summary_of_the_method": "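A secondary screen identifies compounds that stabilize β-gal independently of the native promoter, using CMV-LacZ C2C12 cells. Curves span 0.5–40 μM at six levels, in duplicate.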"}, "[4]": {"tested_on": "β-galactosidase in CMV-LacZ C2C12 myoblasts", "test": "CMV-LacZ secondary screen in C2C12 myoblasts (β-Gal stabilizing assay)", "conditions": "for CMV-LACZ in Myoblasts (β-galactosidase activity relative to DMSO): CMV-LacZ C2C12 myoblasts; for CMV-LACZ in Myoblasts, value relative to DMSO: SU9516 analogs, C2C12 CMV-LacZ, N=2", "summary_of_the_method": "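β-Gal level was the read-out, measured in a clonal C2C12 line expressing LacZ from a CMV promoter. Dose-response curves used six concentrations, 0.5 μM up to 40 μM, with duplicate points.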"}}}
{"smiles": "COc1cccc(C(=O)COc2ccc3ccc(=O)oc3c2)c1", "note": "[MLS000677675-01]", "values": [{"measurement": "Burkin Assay in Myoblasts, signal relative to DMSO", "setting": "[1]; 0.5 uM", "value": 1.093}, {"measurement": "Burkin Assay in Myoblasts, signal relative to DMSO", "setting": "[1]; 1 uM", "value": 1.061}, {"measurement": "Burkin Assay in Myoblasts, signal relative to DMSO", "setting": "[1]; 5 uM", "value": 0.9873}, {"measurement": "Burkin Assay in Myoblasts, signal relative to DMSO", "setting": "[1]; 10 uM", "value": 1.028}, {"measurement": "Burkin Assay in Myoblasts, signal relative to DMSO", "setting": "[1]; 20 uM", "value": 1.004}, {"measurement": "Burkin Assay in Myoblasts, signal relative to DMSO", "setting": "[1]; 40 uM", "value": 0.9554}, {"measurement": "Burkin Assay in Myotubes, α7 integrin LacZ reporter signal relative to DMSO", "setting": "[2]; 0.5 uM", "value": 1.278}, {"measurement": "Burkin Assay in Myotubes, α7 integrin LacZ reporter signal relative to DMSO", "setting": "[2]; 1 uM", "value": 1.205}, {"measurement": "Burkin Assay in Myotubes, α7 integrin LacZ reporter signal relative to DMSO", "setting": "[2]; 5 uM", "value": 1.081}, {"measurement": "Burkin Assay in Myotubes, α7 integrin LacZ reporter signal relative to DMSO", "setting": "[2]; 10 uM", "value": 1.044}, {"measurement": "Burkin Assay in Myotubes, α7 integrin LacZ reporter signal relative to DMSO", "setting": "[2]; 20 uM", "value": 0.6675}, {"measurement": "Burkin Assay in Myotubes, α7 integrin LacZ reporter signal relative to DMSO", "setting": "[2]; 40 uM", "value": 0.6873}, {"measurement": "CMV-LACZ in Myotubes, signal relative to DMSO", "setting": "[3]; 0.5 uM", "value": 0.8619}, {"measurement": "CMV-LACZ in Myotubes, signal relative to DMSO", "setting": "[3]; 1 uM", "value": 0.9962}, {"measurement": "CMV-LACZ in Myotubes, signal relative to DMSO", "setting": "[3]; 5 uM", "value": 1.0578}, {"measurement": "CMV-LACZ in Myotubes, signal relative to DMSO", "setting": "[3]; 10 uM", "value": 1.0091}, {"measurement": "CMV-LACZ in Myotubes, signal relative to DMSO", "setting": "[3]; 20 uM", "value": 0.9918}, {"measurement": "CMV-LACZ in Myotubes, signal relative to DMSO", "setting": "[3]; 40 uM", "value": 1.2494}, {"measurement": "CMV-LACZ in Myoblasts (β-galactosidase activity relative to DMSO)", "setting": "[4]; 0.5 uM", "value": 1.0343}, {"measurement": "CMV-LACZ in Myoblasts (β-galactosidase activity relative to DMSO)", "setting": "[4]; 1 uM", "value": 1.1214}, {"measurement": "CMV-LACZ in Myoblasts (β-galactosidase activity relative to DMSO)", "setting": "[4]; 5 uM", "value": 0.9905}, {"measurement": "CMV-LACZ in Myoblasts (β-galactosidase activity relative to DMSO)", "setting": "[4]; 10 uM", "value": 1.0373}, {"measurement": "CMV-LACZ in Myoblasts (β-galactosidase activity relative to DMSO)", "setting": "[4]; 20 uM", "value": 1.0763}, {"measurement": "CMV-LACZ in Myoblasts (β-galactosidase activity relative to DMSO)", "setting": "[4]; 40 uM", "value": 1.1578}]}
{"smiles": "CCOc1ccc2nc(Cl)sc2c1", "note": "[MLS000678673-01]", "values": [{"measurement": "Burkin Assay in Myoblasts, signal relative to DMSO", "setting": "[1]; 0.5 uM", "value": 0.9325}, {"measurement": "Burkin Assay in Myoblasts, signal relative to DMSO", "setting": "[1]; 1 uM", "value": 1.054}, {"measurement": "Burkin Assay in Myoblasts, signal relative to DMSO", "setting": "[1]; 5 uM", "value": 1.044}, {"measurement": "Burkin Assay in Myoblasts, signal relative to DMSO", "setting": "[1]; 10 uM", "value": 0.9687}, {"measurement": "Burkin Assay in Myoblasts, signal relative to DMSO", "setting": "[1]; 20 uM", "value": 1.173}, {"measurement": "Burkin Assay in Myoblasts, signal relative to DMSO", "setting": "[1]; 40 uM", "value": 1.134}, {"measurement": "Burkin Assay in Myotubes, α7 integrin LacZ reporter signal relative to DMSO", "setting": "[2]; 0.5 uM", "value": 0.9772}, {"measurement": "Burkin Assay in Myotubes, α7 integrin LacZ reporter signal relative to DMSO", "setting": "[2]; 1 uM", "value": 0.9802}, {"measurement": "Burkin Assay in Myotubes, α7 integrin LacZ reporter signal relative to DMSO", "setting": "[2]; 5 uM", "value": 0.9767}, {"measurement": "Burkin Assay in Myotubes, α7 integrin LacZ reporter signal relative to DMSO", "setting": "[2]; 10 uM", "value": 0.9606}, {"measurement": "Burkin Assay in Myotubes, α7 integrin LacZ reporter signal relative to DMSO", "setting": "[2]; 20 uM", "value": 0.8655}, {"measurement": "Burkin Assay in Myotubes, α7 integrin LacZ reporter signal relative to DMSO", "setting": "[2]; 40 uM", "value": 0.781}, {"measurement": "CMV-LACZ in Myotubes, signal relative to DMSO", "setting": "[3]; 0.5 uM", "value": 1.1229}, {"measurement": "CMV-LACZ in Myotubes, signal relative to DMSO", "setting": "[3]; 1 uM", "value": 1.0286}, {"measurement": "CMV-LACZ in Myotubes, signal relative to DMSO", "setting": "[3]; 5 uM", "value": 0.7918}, {"measurement": "CMV-LACZ in Myotubes, signal relative to DMSO", "setting": "[3]; 10 uM", "value": 0.9367}, {"measurement": "CMV-LACZ in Myotubes, signal relative to DMSO", "setting": "[3]; 20 uM", "value": 0.9635}, {"measurement": "CMV-LACZ in Myotubes, signal relative to DMSO", "setting": "[3]; 40 uM", "value": 1.1835}, {"measurement": "CMV-LACZ in Myoblasts (β-galactosidase activity relative to DMSO)", "setting": "[4]; 0.5 uM", "value": 1.2106}, {"measurement": "CMV-LACZ in Myoblasts (β-galactosidase activity relative to DMSO)", "setting": "[4]; 1 uM", "value": 1.1914}, {"measurement": "CMV-LACZ in Myoblasts (β-galactosidase activity relative to DMSO)", "setting": "[4]; 5 uM", "value": 1.0561}, {"measurement": "CMV-LACZ in Myoblasts (β-galactosidase activity relative to DMSO)", "setting": "[4]; 10 uM", "value": 0.8991}, {"measurement": "CMV-LACZ in Myoblasts (β-galactosidase activity relative to DMSO)", "setting": "[4]; 20 uM", "value": 0.8674}, {"measurement": "CMV-LACZ in Myoblasts (β-galactosidase activity relative to DMSO)", "setting": "[4]; 40 uM", "value": 0.9656}]}
{"smiles": "O=C1Nc2ccccc2/C1=C/c1cccnc1", "note": "[MLS000682748-01]", "values": [{"measurement": "Burkin Assay in Myoblasts, value relative to DMSO", "setting": "[1]; 0.5 uM", "value": 1.259}, {"measurement": "Burkin Assay in Myoblasts, value relative to DMSO", "setting": "[1]; 1 uM", "value": 1.162}, {"measurement": "Burkin Assay in Myoblasts, value relative to DMSO", "setting": "[1]; 5 uM", "value": 0.8923}, {"measurement": "Burkin Assay in Myoblasts, value relative to DMSO", "setting": "[1]; 10 uM", "value": 0.765}, {"measurement": "Burkin Assay in Myoblasts, value relative to DMSO", "setting": "[1]; 20 uM", "value": 0.4669}, {"measurement": "Burkin Assay in Myoblasts, value relative to DMSO", "setting": "[1]; 40 uM", "value": 0.2472}, {"measurement": "Burkin Assay in Myotubes, value relative to DMSO", "setting": "[2]; 0.5 uM", "value": 0.9801}, {"measurement": "Burkin Assay in Myotubes, value relative to DMSO", "setting": "[2]; 1 uM", "value": 1.211}, {"measurement": "Burkin Assay in Myotubes, value relative to DMSO", "setting": "[2]; 5 uM", "value": 1.147}, {"measurement": "Burkin Assay in Myotubes, value relative to DMSO", "setting": "[2]; 10 uM", "value": 1.085}, {"measurement": "Burkin Assay in Myotubes, value relative to DMSO", "setting": "[2]; 20 uM", "value": 0.743}, {"measurement": "Burkin Assay in Myotubes, value relative to DMSO", "setting": "[2]; 40 uM", "value": 0.6206}, {"measurement": "CMV-LACZ in Myotubes, value relative to DMSO", "setting": "[3]; 0.5 uM", "value": 0.9356}, {"measurement": "CMV-LACZ in Myotubes, value relative to DMSO", "setting": "[3]; 1 uM", "value": 0.8459}, {"measurement": "CMV-LACZ in Myotubes, value relative to DMSO", "setting": "[3]; 5 uM", "value": 0.8790}, {"measurement": "CMV-LACZ in Myotubes, value relative to DMSO", "setting": "[3]; 10 uM", "value": 0.9205}, {"measurement": "CMV-LACZ in Myotubes, value relative to DMSO", "setting": "[3]; 20 uM", "value": 1.1753}, {"measurement": "CMV-LACZ in Myotubes, value relative to DMSO", "setting": "[3]; 40 uM", "value": 1.1071}, {"measurement": "CMV-LACZ in Myoblasts, value relative to DMSO", "setting": "[4]; 0.5 uM", "value": 0.9075}, {"measurement": "CMV-LACZ in Myoblasts, value relative to DMSO", "setting": "[4]; 1 uM", "value": 0.9666}, {"measurement": "CMV-LACZ in Myoblasts, value relative to DMSO", "setting": "[4]; 5 uM", "value": 1.0215}, {"measurement": "CMV-LACZ in Myoblasts, value relative to DMSO", "setting": "[4]; 10 uM", "value": 0.9959}, {"measurement": "CMV-LACZ in Myoblasts, value relative to DMSO", "setting": "[4]; 20 uM", "value": 0.3893}, {"measurement": "CMV-LACZ in Myoblasts, value relative to DMSO", "setting": "[4]; 40 uM", "value": 0.2419}]}
